This note sets out measurements from patent publication US7541463B2, “Sulfur-containing naphthalimide derivatives” (East China University of Science and Technology, priority 2003, dated 2009).

One may read the inhibition as how much of the control response was suppressed. As a reminder, the melting point is the temperature of the solid-liquid transition.

Data set [1] has as its system human lung adenocarcinoma cell A-549. The data set can be described thus: Growth inhibition of A-549 cells, SRB protein staining assay. The following applies: read-out: Growth inhibition effect to A-549 cell strain; for inhibition at 100 µM: A549, 10^−4 M; for inhibition at 10 µM: A549, 10^−5 M; for inhibition at 1 µM: A549, 10^−6 M; for inhibition at 0.1 µM: A549, 10^−7 M; for inhibition at 0.01 µM: A549, 10^−8 M. It counts as cell-based. The procedure: (§1) The cell growth inhibition of mice leukemia cell P388 was evaluated by MTT (microculture tetrozolium) assay, while the cell growth inhibition of human lung adenocarcinoma cell A-549 was evaluated by SRB (Sulforhodamine B) protein staining assay.
(§2) The procedure of SRB assay was as follows: appropriate amount of cells in log phase were seeded in 96-well plates according to the growing rate (90 ul/well). After cultured for 24 h, cells were exposed to serial dilutions of drugs in triplicate (10 ul/well). In addition, control wells of normal saline in corresponding concentrations and zeroing wells without cell were set. The cells were incubated in 5% CO2 humidified incubator at 37° C. After 72 h, the medium was removed and cells were fixed with cold 10% trichloric acid (TCA) at 4° C. for 1 h. The plates were washed with distilled water 5 times, and stained in room temperature with 4 mg/ml SRB (Sigma, diluted with 1% glacial acetic acid, 100 ul/well) for 15 minutes after air drying. SRB was then washed with 1% acetic acid 5 times. Plates were dried, followed by adding 150 ul/well Tris solution. Absorbance was measured at […] using a multiwell spectrophotometer. The inhibition effect of the compounds in test (percentage of growth inhibition) was calculated for each well: % inhibition=(A540control cells−A540treated cells)/A540control cells×100%.
(§3) The cell lines used were mice leukemia cell P388, human leukemia cell MOLT-4, human lung adenocarcinoma cell A-549, human gastric adenocarcinoma SGC-7901, human hepatocellular carcinoma BEL-7402 and human embryonal fibroblast WI-38 (commerially available from ATCC).
(§4) The exposure time to compounds was 48 h-72 h.
On the technique in general: The SRB assay estimates cell density from bound dye.

Data set [2] deals with human leukemia cell MOLT-4. As to the kind of experiment: Growth inhibition of MOLT-4 cells (MTT or SRB assay). Particulars: read-out: Growth inhibition effect to MOLT-4 cell strain; for inhibition at 100 µM: 10^−4 M; for inhibition at 10 µM: 10^−5 M; for inhibition at 1 µM: 10^−6 M; for inhibition at 0.1 µM: 10^−7 M; for inhibition at 0.01 µM: 10^−8 M. It counts as cell-based. The procedure:
(§5) The procedure of MTT assay was as follows: appropriate amount of cells in log phase were seeded in 96-well plates (6000 cells/well, 15000 cells/well, 90ul/well) according to the growing rate. After cultured for 24 h, cells were exposed to serial dilutions of drugs in triplicate (10 ul/well). In addition, wells without cell, and wells without cell but with serial dilutions of drugs in case of using a colored-drug were set for zeroing. Then, the cells were cultured in 5% CO2 humidified incubator at 37° C. for 48 h. After treatment of drugs for 48 h, 20ul MTT (Sigma) which was diluted by normal saline to the concentration of 5 mg/ml was added to each well, 50ul/well 10%SDS-5% isobutanol-0.01% mol/LHCl was added after 4 h. After cultured overnight, absorbance was measured at 570 nm using a multiwell spectrophotometer. The inhibition effect of the compounds in test (percentage of growth inhibition) was calculated for each well: % inhibition=(OD570control cells−OD570treated cells)/OD570control cells×100%.
as §2
(§6) The methods used were MTT assay or SRB assay.
as §3, §4

Data set [3] relates to human gastric adenocarcinoma SGC-7901. The data set can be described thus: Growth inhibition of SGC-7901 cells (MTT or SRB assay). The following applies: read-out: Growth inhibition effect to SGC-7901 cell strain; for inhibition at 100 µM: 10^−4 M; for inhibition at 10 µM: 10^−5 M; for inhibition at 1 µM: 10^−6 M; for inhibition at 0.1 µM: 10^−7 M; for inhibition at 0.01 µM: 10^−8 M. It counts as cell-based. The procedure:
as §5, §2, §6, §3, §4
Background: Tetrazolium assays rely on reduction of a dye to a coloured formazan, in cell work by metabolically active cells.

Data set [4] relates to human hepatocellular carcinoma BEL-7402. As to the kind of experiment: Growth inhibition of BEL-7402 cells (MTT or SRB assay). The class given is cell-based. The following applies: read-out: Growth inhibition effect to BEL-7402 cell strain; for inhibition at 100 µM: 10^−4 M; for inhibition at 10 µM: 10^−5 M; for inhibition at 1 µM: 10^−6 M; for inhibition at 0.1 µM: 10^−7 M; for inhibition at 0.01 µM: 10^−8 M. On the procedure: as §5, §2, §6, §3, §4

The subject of a further data set is mice leukemia cell P388. The data set can be described thus: Growth inhibition of P388 cells, MTT assay. It counts as cell-based. The following applies: Mus musculus, read-out: Growth inhibition effect to P388 cell strain; for inhibition at 100 µM: 10^−4 M; for inhibition at 10 µM: 10^−5 M; for inhibition at 1 µM: 10^−6 M; for inhibition at 0.1 µM: 10^−7 M; for inhibition at 0.01 µM: 10^−8 M. On the procedure:
as §1, §5, §3, §4

As for `CCCCn1c(=O)c2ccc3sc4ccccc4c4ccc(c1=O)c2c34` [compound 1, N-butyl benzo[k, l]thioxanthene-3,4-dicarboximide], the melting point fell in the range of 185 to 186 °C. In data set [1], the inhibition at 100 µM was 34.4%, the inhibition at 10 µM came to 0%, the inhibition at 1 µM came out at 0% and the inhibition at 0.1 µM stood at 0%. In data set [1], the inhibition at 0.01 µM came out at 0%. In addition, in data set [2], the inhibition at 100 µM came out at 100%, the inhibition at 10 µM came to 98.5%, the inhibition at 1 µM amounted to 97.7% and the inhibition at 0.1 µM amounted to 77.4%. In addition, the inhibition at 0.01 µM in data set [2] was 1.1%. Also, in data set [3], the inhibition at 100 µM amounted to 87.5%, the inhibition at 10 µM was 56.2%, the inhibition at 1 µM came out at 46% and the inhibition at 0.1 µM was 21.4%. Moreover, in data set [3], the inhibition at 0.01 µM turned out to be 9.8%. Besides, in data set [4], the inhibition at 100 µM is 70.1%, the inhibition at 10 µM came out at 76.9%, the inhibition at 1 µM was determined as 67% and the inhibition at 0.1 µM was 3.7%. The inhibition at 0.01 µM in data set [4] worked out at 6.6%. Besides, in the data set with mice leukemia cell P388, the inhibition at 100 µM was 51.7%, the inhibition at 10 µM is 10.2%, the inhibition at 1 µM stood at 6.4% and the inhibition at 0.1 µM came to 2.2%. Further, the inhibition at 0.01 µM in the data set on mice leukemia cell P388 is 4.3%.
In the case of `CN(C)CCn1c(=O)c2ccc3sc4ccccc4c4ccc(c1=O)c2c34` [compound 2, N-(N′,N′-dimethylaminoethyl)benzo[k, l]thioxanthene-3,4-dicarboximide], the melting point lay in the range of 212 to 213 °C. Further, in data set [1], the inhibition at 100 µM came out at 91.3%, the inhibition at 10 µM came out at 90.2%, the inhibition at 1 µM amounted to 75.1% and the inhibition at 0.1 µM amounted to 50.2%. For the same compound, the inhibition at 0.01 µM in data set [1] was determined as 16.9%. Moreover, in data set [2], the inhibition at 100 µM was found to be 100%, the inhibition at 10 µM came to 100%, the inhibition at 1 µM was determined as 97.7% and the inhibition at 0.1 µM is 42.3%. Further, in data set [2], the inhibition at 0.01 µM was determined as 0%. Besides, in data set [3], the inhibition at 100 µM was determined as 96.2%, the inhibition at 10 µM was found to be 88%, the inhibition at 1 µM was 37.8% and the inhibition at 0.1 µM was 28.5%. Moreover, the inhibition at 0.01 µM in data set [3] came to 0.8%. Further, in data set [4], the inhibition at 100 µM was 95.1%, the inhibition at 10 µM is 90.7%, the inhibition at 1 µM is 72.9% and the inhibition at 0.1 µM worked out at 24.9%. Moreover, the inhibition at 0.01 µM in data set [4] worked out at 14.2%. Besides, in the data set on mice leukemia cell P388, the inhibition at 100 µM was determined as 99.9%, the inhibition at 10 µM worked out at 78.9%, the inhibition at 1 µM was determined as 22.2% and the inhibition at 0.1 µM came out at 7.7%. The inhibition at 0.01 µM with mice leukemia cell P388 is 10.1%.
In turn, `CN(C)CCCn1c(=O)c2ccc3sc4ccccc4c4ccc(c1=O)c2c34` [compound 4, N-(N′, N′-dimethylaminopropyl)benzo[k, l]thioxanthene-3,4-dicarboximide] displayed a melting point of 202 to 203 °C. Moreover, in data set [1], the inhibition at 100 µM was found to be 80.3%, the inhibition at 10 µM came to 92.9%, the inhibition at 1 µM came out at 73.5% and the inhibition at 0.1 µM turned out to be 33.4%. Also, the inhibition at 0.01 µM in data set [1] amounted to 17.3%. In data set [2], the inhibition at 100 µM turned out to be 100%, the inhibition at 10 µM is 99.7%, the inhibition at 1 µM is 93.9% and the inhibition at 0.1 µM came out at 22.3%. For the same compound, the inhibition at 0.01 µM in data set [2] was determined as 0%. Besides, in data set [3], the inhibition at 100 µM came out at 94.5%, the inhibition at 10 µM worked out at 91.8%, the inhibition at 1 µM is 39.1% and the inhibition at 0.1 µM is 0.2%. Further, in data set [3], the inhibition at 0.01 µM is 13.8%. Moreover, in data set [4], the inhibition at 100 µM is 94.6%, the inhibition at 10 µM came to 95%, the inhibition at 1 µM came to 50.7% and the inhibition at 0.1 µM worked out at 24.3%. Besides, the inhibition at 0.01 µM in data set [4] worked out at 17.9%. Besides, in the data set on mice leukemia cell P388, the inhibition at 100 µM was found to be 100%, the inhibition at 10 µM amounted to 100%, the inhibition at 1 µM turned out to be 23.1% and the inhibition at 0.1 µM was 11%. For the same compound, the inhibition at 0.01 µM with mice leukemia cell P388 worked out at 16.2%.
In turn, `CN(C)CCN1C(=O)c2cccc3c2c(cc2nnsc23)C1=O` [compound 11, 5-(N′,N′-dimethylaminoethyl)-4H, 6H-benzo[de]-1,2,3,-thiadiazol[5,4-g]isoquinoline-4,6-diketone] gave a melting point of 178 to 179 °C. In data set [1], the inhibition at 100 µM is 95.7%, the inhibition at 10 µM was 93.7%, the inhibition at 1 µM came to 94.5% and the inhibition at 0.1 µM was found to be 76.6%. Also, the inhibition at 0.01 µM in data set [1] worked out at 20.2%. Further, in data set [2], the inhibition at 100 µM was 100%, the inhibition at 10 µM is 100%, the inhibition at 1 µM turned out to be 100% and the inhibition at 0.1 µM was determined as 82.8%. Further, the inhibition at 0.01 µM in data set [2] stood at 0%. Moreover, in data set [3], the inhibition at 100 µM came out at 96.5%, the inhibition at 10 µM was 97.1%, the inhibition at 1 µM was 38.9% and the inhibition at 0.1 µM stood at 16.7%. Moreover, the inhibition at 0.01 µM in data set [3] worked out at 1.1%. In data set [4], the inhibition at 100 µM was found to be 95.7%, the inhibition at 10 µM was 90.9%, the inhibition at 1 µM was determined as 74% and the inhibition at 0.1 µM was determined as 20.1%. Moreover, the inhibition at 0.01 µM in data set [4] was determined as 24.4%. In addition, in the data set on mice leukemia cell P388, the inhibition at 100 µM is 98.7%, the inhibition at 10 µM worked out at 92.7%, the inhibition at 1 µM stood at 42.2% and the inhibition at 0.1 µM was determined as 13.8%. Moreover, the inhibition at 0.01 µM in the data set on mice leukemia cell P388 is 10.7%.
In turn, `CN(C)CCCN1C(=O)c2cccc3c2c(cc2c4ccccc4sc32)C1=O` [compound 18, N-(N′,N′-dimethylaminopropyl)benzo[b]thieno[2,1-c] naphthalimide] displayed a melting point of 168 to 170 °C. Besides, in data set [1], the inhibition at 100 µM came to 95.3%, the inhibition at 10 µM came out at 96.9%, the inhibition at 1 µM was found to be 81.1% and the inhibition at 0.1 µM worked out at 47.2%. In data set [1], the inhibition at 0.01 µM is 1.7%. In the data set with mice leukemia cell P388, the inhibition at 100 µM stood at 100%, the inhibition at 10 µM is 100%, the inhibition at 1 µM worked out at 29.8% and the inhibition at 0.1 µM came to 17.1%. Also, in the data set with mice leukemia cell P388, the inhibition at 0.01 µM turned out to be 5.5%.
